Patent US20220370416A1, “COMPOUNDS AND METHODS FOR TARGETED DEGRADATION OF KRAS” (Arvinas Operations, Inc., priority 2020, published 2022)

How the values were obtained:
Format in all cases: cell-based
[1] = target: T1, KRAS^G12C (Homo sapiens, UniProt P01116, G12C); experiment: KRAS^G12C degradation by immunoblot in NCI-H23 cells; set-up: MRTX849-VHL bifunctional compounds engage and degrade endogenous KRAS^G12C in NCI-H2030 cells; endogenous in cells; host or cells: NCI-H2030, NCI-H358, MIA PaCa-2, SW1573, NCI-H23; details: for KRAS, two-way ANOVA significance vs DMSO: FIG. 9B
Protocol: (§1) NCI-H2030 (CRL-5914), MIA PaCa-2 (CRL-1420), NCI-H23 (CRL-5800), NCI-H358 (CRL-5807), and HCT-116 (CCL-247) cells were obtained from ATCC, expanded immediately, and frozen down. Vials were thawed and used within 20 passages. SW1573 cells were a gift from Arvinas and were handled in the same manner. NCI-H2030, NCI-H23, and NCI-H358 were cultured in RPMI (ATCC30-2001) supplemented with 10% FBS (Biological Industries; cat. no. S1480) and 1% Penicillin-Streptomycin (ThermoFisher; cat. no. 15140122). HCT-116 cells were maintained in high glucose DMEM (ThermoFisher; cat. no. 11965084) supplemented as above. MIA PaCa-2 cells were cultured in high glucose DMEM supplemented with 10% FBS, 2.5% horse serum (ThermoFisher; cat. no. 26050-088; lot 2109875), and 1% Penicillin-Streptomycin. SW1573 cells were maintained in DMEM/F12 Nutrient Mix with GlutaMAX supplement (ThermoFisher; cat. no. 10565018) with 10% FBS and 1% Penicillin-Streptomycin added. DPBS (ThermoFisher; cat. no. 14190250) was used to wash cells and 0.25% Trypsin-EDTA (ThermoFisher; cat. no. […]) was used to detach cells for passaging. […] The VHL ligand was generously provided by Arvinas.
(§2) Between 2.5×10^5 and 6.0×10^5 cells were seeded into 6-well plates (Corning; cat. no. 353046). The next day, media was removed and cells were treated with 2.5 μM LC-2 for 1, 2, 4, 8, 12, or 24 hours. […] For 24-hour time course experiments, cells were treated at the indicated times and concurrently lysed in RIPA buffer supplemented as described previously. For longer time course experiments and time courses in which cells were treated with LC-2 or LC-2 Epimer, cells were concurrently treated with either compound, then lysed by scraping in RIPA buffer at the indicated time points.
(§3) Between 2.5×10^5 and 5.0×10^5 cells were seeded into 6-well plates. The next day cells were pretreated with DMSO, 500 μM or 1 mM VHL ligand, 1 μM epoxomicin, 1 μM […], or 100 nM […] bafilomycin A1 for 1 hour. Media was then removed and cells were treated with DMSO, 2.5 μM LC-2 plus DMSO, 2.5 μM LC-2 Epimer plus DMSO, or co-treated with 2.5 μM LC-2 and the corresponding competitor/inhibitor. H2030 cells were treated for 4 hours and H23 cells were treated for 24 hours, after which cells were lysed by scraping in RIPA buffer supplemented as described previously.
(§4) Cell lysates were clarified at 21000×g for 15 mins at 4° C. Protein levels were quantified using a 50:1 mixture of bicinchoninic acid solution (Millipore Sigma; cat. no. B9643) and 4% (w/v) copper(II) sulfate solution (Millipore Sigma; cat. no. C2284) incubated at 37° C. for 30 mins. Absorbance values at 560 nm were read on an EnVision 2101 Multilabel Reader (PerkinElmer). Proteins were separated using 26 well Criterion TGX precast 4-15% (cat. no. 5671085) or 8-16% (cat. no. 5671105) gradient midi gels. After separation, proteins were transferred to nitrocellulose or PVDF membranes at 76 V for 2 hours at 4° C. Blots were then blocked in 5% milk in tris-buffered saline with Tween-20 (TBST; 20 mM Tris, 150 mM NaCl, 0.02% Tween-20). After blocking, blots were incubated in primary antibody overnight (12-18 hours) at 4° C. or for 2 hours at room temperature with mild agitation at the manufacturer's indicated dilution in either 5% milk or 5% BSA in TBST. Blots were then washed thrice with TBST for 5 mins at room temperature. After washing, blots were incubated with 1:5,000-1:10,000 of donkey anti-rabbit (GE Life Sciences; NA934) or sheep anti-mouse (GE Life Sciences; NA931) secondary antibody diluted in 5% milk for 1 hour at room temperature with mild agitation. Blots were again washed thrice with TBST for 5 mins. Chemiluminescent signal was generated using Amersham ECL Prime Western Blotting Detection Reagant (GE Life Sciences; cat. no. RPN2232) or SuperSignal West Femto Maximum Sensitivity Substrate (ThermoFisher; cat. no. 34095). Images were obtained using a Bio-Rad ChemiDoc Imager.

[2] = target: T1, KRAS^G12C; experiment: Engagement and degradation of endogenous KRAS^G12C in NCI-H2030 cells (blot quantitation); set-up: MRTX849-VHL bifunctional compounds engage and degrade endogenous KRAS^G12C in NCI-H2030 cells; endogenous in cells; host or cells: NCI-H2030; details: dose response (FIG. 2B)
[3] = target: T1, KRAS^G12C; experiment: KRAS^G12C engagement and degradation by immunoblot in NCI-H2030 cells; set-up: MRTX849-VHL bifunctional compounds engage and degrade endogenous KRAS^G12C in NCI-H2030 cells; endogenous in cells; host or cells: NCI-H2030, NCI-H358, MIA PaCa-2, SW1573, NCI-H23; details: for rescue of LC-2 induced KRAS^G12C degradation by inhibitor: NCI-H2030, 1 μM inhibitor before 2.5 μM LC-2
Protocol: as §1, §2, §3, §4

Structure (SMILES): C=C(F)C(=O)N1CCN(c2nc(OC[C@@H]3CCCN3CCC(=O)NCCOCCOCCC(=O)N[C@H](C(=O)N3C[C@H](O)C[C@H]3C(=O)NCc3ccc(-c4scnc4C)cc3)C(C)(C)C)nc3c2CCN(c2cccc4cccc(Cl)c24)C3)C[C@@H]1CC#N [LC-1, (2S,4R)-1-((S)-2-(tert-butyl)-16-((S)-2-(((7-(8-chloronaphthalen-1-yl)-4-((S)-3-(cyanomethyl)-4-(2-fluoroacryloyl)piperazin-1-yl)-5,6,7,8-tetrahydropyrido[3,4-d]pyrimidin-2-yl)oxy)methyl)pyrrolidin-1-yl)-4,14-dioxo-7,10-dioxa-3,13-diazahexadecanoyl)-4-hydroxy-N-(4-(4-methylthiazol-5-yl)benzyl)pyrrolidine-2-carboxamide]
- KRAS, two-way ANOVA significance vs DMSO ([1]; NCI-H23, 0.1 μM): N.S.
- KRAS, two-way ANOVA significance vs DMSO ([1]; NCI-H23, 10 μM): N.S.
- engagement of KRAS^G12C [2]: engages KRAS^G12C in a dose dependent manner
- effect on KRAS protein levels ([3]; 10 μM, compound screen (FIG. 2C)): increased KRAS protein levels
- KRAS, two-way ANOVA significance vs DMSO ([3]; NCI-H2030, 10 μM, FIG. 9A): * (* p < 0.05)
- KRAS engagement (band shift) ([3]; NCI-H2030, 24 hours, at 1, 2.5, 10, and 25 μM): clear band shift
- reduction in KRAS levels ([3]; NCI-H2030, 24 hours, increasing concentrations): small, non-significant reduction

Structure (SMILES): NS(=O)(=O)OC[C@@H]1C[C@@H](n2ccc3c(N[C@H]4CCc5ccccc54)ncnc32)C[C@@H]1O [MLN924, reference compound]
- rescue of LC-2 induced KRAS^G12C degradation by inhibitor [3]: rescued KRAS^G12C levels

Structure (SMILES): CO/C1=C\C(C)=C\[C@@H](C)[C@@H](O)[C@@H](C)C/C(C)=C/C=C/[C@H](OC)[C@@H]([C@@H](C)[C@@H](O)[C@H](C)[C@@]2(O)C[C@@H](O)[C@H](C)[C@@H](C(C)C)O2)OC1=O [BafA1, bafilomycin A1, reference compound]
- rescue of LC-2 induced KRAS^G12C degradation by inhibitor ([1]; NCI-H23, pre-treatment before LC-2): unable to rescue

Structure (SMILES): CC[C@H](C)[C@H](NC(=O)[C@H]([C@@H](C)CC)N(C)C(C)=O)C(=O)N[C@H](C(=O)N[C@@H](CC(C)C)C(=O)[C@@]1(C)CO1)[C@@H](C)O [epoxomicin, reference compound]
- rescue of LC-2 induced KRAS^G12C degradation by inhibitor [3]: rescued KRAS^G12C levels
